In BindingDB's records for PubMed 37981443 (National Clinical Research Center for Geriatrics):

Key:
Procathepsin L = Procathepsin L (Homo sapiens, UniProt P07711); assay: Inhibition of Cathepsin L (unknown origin)
[1] = target: 1-phosphatidylinositol 3-phosphate 5-kinase (Homo sapiens, UniProt Q9Y2I7); assay: Inhibition of N-terminal His-tagged human PIKfyve expressed in Sf9 insect cells incubated for 1 hr by enzyme assay
Sequence of 1-phosphatidylinositol 3-phosphate 5-kinase (Q9Y2I7 whole entry): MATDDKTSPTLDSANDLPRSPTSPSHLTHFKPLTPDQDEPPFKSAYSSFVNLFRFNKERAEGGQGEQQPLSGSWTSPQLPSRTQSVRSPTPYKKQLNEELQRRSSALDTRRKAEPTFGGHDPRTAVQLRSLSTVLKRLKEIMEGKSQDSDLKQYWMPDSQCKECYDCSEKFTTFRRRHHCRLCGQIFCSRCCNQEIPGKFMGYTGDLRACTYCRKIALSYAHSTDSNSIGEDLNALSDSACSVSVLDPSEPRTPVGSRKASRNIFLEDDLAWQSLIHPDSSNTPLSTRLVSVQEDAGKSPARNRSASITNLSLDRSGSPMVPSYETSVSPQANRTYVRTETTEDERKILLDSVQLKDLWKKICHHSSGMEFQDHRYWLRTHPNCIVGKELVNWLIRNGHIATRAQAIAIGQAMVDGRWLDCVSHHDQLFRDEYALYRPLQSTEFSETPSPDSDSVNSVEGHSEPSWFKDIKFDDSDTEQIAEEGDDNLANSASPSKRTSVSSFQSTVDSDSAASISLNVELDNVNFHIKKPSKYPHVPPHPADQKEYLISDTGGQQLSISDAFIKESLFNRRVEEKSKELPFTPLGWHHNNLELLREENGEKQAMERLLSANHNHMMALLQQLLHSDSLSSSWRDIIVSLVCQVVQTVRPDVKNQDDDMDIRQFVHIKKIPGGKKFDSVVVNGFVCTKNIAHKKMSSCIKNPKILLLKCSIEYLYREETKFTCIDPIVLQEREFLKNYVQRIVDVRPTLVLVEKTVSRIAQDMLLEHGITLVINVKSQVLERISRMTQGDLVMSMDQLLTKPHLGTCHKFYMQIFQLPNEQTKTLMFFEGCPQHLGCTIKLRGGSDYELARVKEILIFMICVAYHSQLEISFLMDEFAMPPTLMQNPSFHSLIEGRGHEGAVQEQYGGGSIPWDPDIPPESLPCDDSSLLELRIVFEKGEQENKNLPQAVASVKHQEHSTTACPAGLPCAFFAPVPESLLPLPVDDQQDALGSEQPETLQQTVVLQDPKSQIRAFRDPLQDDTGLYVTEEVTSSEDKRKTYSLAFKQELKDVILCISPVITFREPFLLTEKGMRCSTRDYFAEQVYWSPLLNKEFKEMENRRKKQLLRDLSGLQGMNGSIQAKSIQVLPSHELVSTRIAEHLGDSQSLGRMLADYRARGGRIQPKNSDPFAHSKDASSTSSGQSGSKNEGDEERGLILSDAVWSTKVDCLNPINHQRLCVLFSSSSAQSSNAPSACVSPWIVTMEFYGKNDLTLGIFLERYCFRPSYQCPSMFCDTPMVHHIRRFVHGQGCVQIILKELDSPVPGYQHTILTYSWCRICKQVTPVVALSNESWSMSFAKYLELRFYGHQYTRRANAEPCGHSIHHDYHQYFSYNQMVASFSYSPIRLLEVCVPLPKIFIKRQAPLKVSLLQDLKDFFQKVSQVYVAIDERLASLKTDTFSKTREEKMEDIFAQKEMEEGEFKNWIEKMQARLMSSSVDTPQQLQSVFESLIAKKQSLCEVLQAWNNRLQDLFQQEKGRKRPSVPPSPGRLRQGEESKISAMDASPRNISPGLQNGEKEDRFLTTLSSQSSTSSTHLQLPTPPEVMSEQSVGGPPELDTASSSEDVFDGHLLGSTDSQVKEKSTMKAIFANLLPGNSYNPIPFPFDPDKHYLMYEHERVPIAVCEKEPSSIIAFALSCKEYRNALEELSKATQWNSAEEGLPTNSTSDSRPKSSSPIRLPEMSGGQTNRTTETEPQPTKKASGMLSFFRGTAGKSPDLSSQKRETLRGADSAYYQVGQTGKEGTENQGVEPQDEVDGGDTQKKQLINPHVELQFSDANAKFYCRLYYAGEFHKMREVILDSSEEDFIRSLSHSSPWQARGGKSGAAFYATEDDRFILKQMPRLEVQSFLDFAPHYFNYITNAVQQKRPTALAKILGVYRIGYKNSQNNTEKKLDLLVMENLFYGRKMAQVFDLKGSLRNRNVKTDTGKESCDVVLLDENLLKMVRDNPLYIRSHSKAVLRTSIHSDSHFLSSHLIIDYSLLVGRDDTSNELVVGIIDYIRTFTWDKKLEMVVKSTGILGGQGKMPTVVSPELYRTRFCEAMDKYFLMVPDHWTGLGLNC

Sequence of Procathepsin L (P07711 whole entry): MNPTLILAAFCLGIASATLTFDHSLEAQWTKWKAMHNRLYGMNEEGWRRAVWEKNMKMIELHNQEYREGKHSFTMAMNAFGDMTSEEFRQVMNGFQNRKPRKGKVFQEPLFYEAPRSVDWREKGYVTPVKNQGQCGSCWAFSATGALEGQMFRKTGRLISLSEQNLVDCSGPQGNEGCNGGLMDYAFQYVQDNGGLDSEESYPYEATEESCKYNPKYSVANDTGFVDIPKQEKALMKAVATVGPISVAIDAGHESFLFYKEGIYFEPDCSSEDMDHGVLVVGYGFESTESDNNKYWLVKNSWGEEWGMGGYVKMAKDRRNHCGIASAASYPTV

SMILES	IC50 (Procathepsin L) [nM]	IC50 [1] [nM]
CCCC[C@@H](C=O)NC(=O)[C@H](CC(C)C)NC(=O)OCc1ccccc1 [[(S)-1-((S)-1-Formyl-pentylcarbamoyl)-3-methyl-butyl]-carbamic acid benzyl ester]	44	–
COc1ccc2[nH]c(C)c(/C=C/C(=O)c3ccncc3)c2c1	–	5.1
